Data published in patent US5817012A, “Method of determining an analyte” (Sudormed, Inc., priority 1997, dated 1998).
“And” between values parts separate entries of the source, which are not always exact repeats. Equal values may be shown once. “Also recorded” adds a separate entry of the source. Where a name gives a salt, the structure may show the parent alone.

How the values were obtained:
[1] = Table 2; weak bases (Wilson, J., Abused Drugs, 1990); cited from earlier work
[2] = Example 6: cocaine collected on patch converted to BE and analyzed with Roche RIA; conditions: seven days wear, subject who ingested cocaine, pH 11, 20 minutes
Source text: Absorption disks, 3/8 inch in diameter, are cut from Gelman membranes (Gelman 0.45μ (SU-450) Ultrabind Supported Membranes). These 3/8 inch disks are mounted at the center of a 1/4 inch diameter hole cut in the center of a one inch diameter circle of Tegaderm 1625 Transparent Dressing (available from Minnesota Mining and Manufacturing, St. Paul, Minn.) to form a patch.
The patches remain in place until they are removed seven days later from each subject.
Following elution, the analyte solutions derived from each of the patches are brought to a pH of 11 by the addition of NaOH to each of the solutions. The solutions are reacted for 20 minutes at pH 11 and at room temperature, after which the solutions are neutralized with HCl.

[3] = cited from earlier work
[4] = in vivo; cited from earlier work
[5] = FIG. 14: cocaine in dermal patches after smoked cocaine; conditions: 42 mg smoked
[6] = FIG. 13: cocaine in dermal patches after intravenous cocaine HCl; conditions: 32 mg cocaine HCl intravenously
Protocol: A dermal patch was then immediately placed on the subject's skin, and after 30 minutes this patch was removed and replaced by a new patch.

[7] = Example 12: amount of cocaine recovered on patch after nasal ingestion; conditions: 126 mg nasally ingested; about 200 hours wear; 10 cm^2 disk
[8] = format: in vivo, human; conditions: 60 mg codeine phosphate P.O.; first six hours; heating pad
Protocol: FIG. 16 is a graph depicting the results of an experiment in which a subject was administered codeine and a dermal patch was then placed on each of the subject's thighs. A heating pad which was heated to 105° F. was then placed over one thigh while the other thigh remained unheated. The patches were replaced each hour for six hours, and a final pair of patches was placed on the subject's thighs for one hour between 24 and 25 hours after the administration of the codeine.
Active perspiration can be caused by an increase in the body's temperature,such as during exercise. A further experiment was therefore conducted to see whether an increase in the temperature of only one area of the body could cause localized active perspiration. In this experiment, a subject was administered 60 mg of codeine phosphate (in the form of Naldecon CX P.O., 30 ml), and a dermal patch was then placed on each of the subject's thighs. A heating pad which was heated to 105° F. was then placed over one thigh while the other thigh remained unheated. The patches were replaced each hour for six hours, and a final pair of patches was placed on the subject's thighs for one hour between 24 and 25 hours after the administration of the codeine.

[9] = Example 20: codeine level in urine, Tegaderm-only patches and patches with absorbent material (Table 3); format: in vivo, human
Source text: Five patches comprising only Tegaderm™ 1625 wound dressing were applied to a subject. […] Six patches comprising Tegaderm™ 1625 and another absorbent material were also applied to the subject at the same time. The collection surface area of the absorbent material in these patches was 14 cm^2. Prior to applying each of the patches, the area of skin under each patch was first swabbed with alcohol in order to remove any contaminants present on the surface of the skin.
Twenty-four hours after the initial application of the patches to the subject, a pre-dose urine specimen and one of each of the two patch types were collected. The subject then orally consumed 60 mg of codeine phosphate (30 ml. Naldecon CX-60). This represents a typical codeine dose. At 30 and 48 hours post-dose, urine and one of each type of patch were collected.

[10] = literature (Schwartz; Martindale); cited from earlier work
[11] = format: in vivo, human; conditions: seven days wear, subject who smoked a marijuana cigarette
Protocol: THC polyclonal antibody from sheep (available from Biogenesis, Bournmouth, England) is diluted 1:100 in PBS (pH 7.5). The antibodies are bound to Gelman 0.45μ (SU-450) Ultrabind Supported Membrane, following the protocol in Gelman Original Equipment Manufacturer application P.N. 31,084. The membranes are air dried. Disks, 3/8 inch in diameter, are cut from the coated Gelman membranes.
Each of the removed membranes is flushed five times with 300 μl of 0.2% Tween 20 in PBS. The membranes are incubated for 30 minutes in 100 μl of E-Z Screen Cannabinoid enzyme conjugate from the E-Z Screen Test Kit (available from Environmental Diagnostics, Inc., Burlington, N.C.).
After incubation, each membrane is flushed three times with 300 μl of 0.2% Tween 20 in PBS, followed by three flushes with PBS alone. The membranes are then incubated in TMB Membrane Peroxide Substrate (available from Kirkegaard & Perry Labs, Gaithersburg, Md.) for 10 minutes. A light blue background appears in all six membranes. […] No white dots appear on the three membranes taken from the subject who has never used marijuana.

CC(N)Cc1ccccc1 (stereo not drawn) [Amphetamine]
pKa [1]: 9.8

CN1[C@H]2CC[C@@H]1[C@@H](C(=O)O)[C@@H](OC(=O)c1ccccc1)C2 [BE, benzoylecgonine]
concentration of BE in the subject's urine over time (in vivo): declining
diagnostic analysis for BE in patch extract [2]: tests positive

COC(=O)[C@H]1[C@@H](OC(=O)c2ccccc2)C[C@@H]2CC[C@H]1N2C [Cocaine]
back-diffusion from patch (almost 200 hours): without exhibiting significant back-diffusion; also recorded: significant back-diffusion was prevented
concentration of cocaine on the dermal patch over time (almost 200 hours after ingestion, no specific binding chemistry): rose immediately during the first hours of the test, and thereafter stayed at approximately the same level for the remaining 200 hours
stability at pH values higher than 7 [3]: unstable
presence in perspiration and urine [4]: present in perspiration but not in urine
cocaine concentration in patch, 8 to 24 hours ([5]; patch wet with perspiration, worn 8 to 24 hours): a significant rise in concentration
cocaine concentration in patch, 4 to 8 hours ([5]; patch worn between 4 and 8 hours): a decline
analyte in patch worn 8 to 24 hours compared to patch worn 2 to 4 hours ([5]; subject actively perspired): significantly more analyte diffused into the patch worn between 8 and 24 hours
concentration of cocaine in perspiration after the fourth hour [6]: a steady decline
cocaine recovered on the patch [7]: approximately 500 ng
cocaine recovered on the patch (in parentheses) [7]: ~0.5 mg

COc1ccc2c3c1O[C@H]1[C@@H](O)C=C[C@H]4[C@@H](C2)N(C)CC[C@@]341 [Codeine, codeine]
analyte in patches, heated versus unheated thigh [8]: contained more analyte than the patches on the unheated thigh
ratio of recovered codeine in the Tegaderm-only patches compared to the patches with an absorbent material ([9]; 24.4/18.1): 136%
mean codeine level, all five patches having another absorbent material ([9]; 30 and 48 hours post-dose): 18.1 ng/mL
mean codeine level, all four Tegaderm-only patches ([9]; 30 and 48 hours post-dose): 24.4 ng/mL
Codeine Level, patch with absorbent material ([9]; 30 hours post-dose, 60 mg codeine phosphate orally, 14 cm^2): 12.40 ng/mL and 23.99 ng/mL
urine codeine level ([9]; 48 hours post-dose): returned to baseline
Codeine Level, urine sample ([9]; 48 hours post-dose, 60 mg codeine phosphate orally): 0 ng/mL
Codeine Level, patch with absorbent material ([9]; 48 hours post-dose, 60 mg codeine phosphate orally, 14 cm^2): 14.39 ng/mL and 19.41 ng/mL and 20.17 ng/mL
Codeine Level, Tegaderm-only patch ([9]; 48 hours post-dose, 60 mg codeine phosphate orally, 42 cm^2): 17.69 ng/mL and 23.19 ng/mL
concentration at 30 h ([9]; human, urine, po, 30 hours post-dose, 60 mg codeine phosphate orally, read-out: Codeine Level, urine sample): 620 ng/mL
retention of codeine by both patch designs ([9]; in vivo): about 48 hours
pre-dose presence of codeine ([9]; pre-dose urine and patch specimens): no codeine was present
Codeine Level, Tegaderm-only patch ([9]; predose): 0 ng/mL
Codeine Level, patch with absorbent material ([9]; predose): 0 ng/mL
Codeine Level, urine sample ([9]; predose): 0 ng/mL

CCN(CC)C(=O)[C@@H]1C=C2c3cccc4[nH]cc(c34)C[C@H]2N(C)C1 [LSD]
protection from light [10]: must be kept from exposure to strong light

CN[C@@H](C)Cc1ccccc1 [Methamphetamine]
pKa [1]: 9.9

c1ccc(C2(N3CCCCC3)CCCCC2)cc1 [Phencyclidine]
pKa [1]: 8.5

CCCCCc1cc(O)c2c(c1)OC(C)(C)[C@@H]1CCC(C)=C[C@@H]21 [THC, tetrahydrocannabinol]
appearance of white dots on membranes (THC derivatives in sweat) [11]: White dots appear over the background on the three membranes

COC(=O)[C@H]1[C@@H](OC(=O)c2ccccc2)C[C@@H]2CC[C@H]1N2C [cocaine hydrochloride]
protection from light [10]: require protection from light
